# From the supplement of paper PMC10307832
# Columns and labels:
# Assay in all cases: relative viability (nuclei count vs DMSO), 5 days (fraction); higher = more cells survive
# Kobe2602 + OSI-027 = compound: C1=CC(=CC=C1NC(=S)NNC2=C(C=C(C=C2[N+](=O)[O-])C(F)(F)F)[N+](=O)[O-])F [Kobe2602] + COc1cccc2cc(-c3nc([C@H]4CC[C@H](C(=O)O)CC4)n4ncnc(N)c34)[nH]c12 [OSI-027] (partner 0.5 µM)
# Outline: (§1)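 Medians of duplicate plates are given as relative viability. That measure is the nuclei count in treated wells divided by the count in vehicle wells. Counts were taken on 4× images of lung cancer cell lines in 1536-well plates, 5 days after pin-tool dosing the day after seeding with one drug alone or a fixed anchor-drug dose plus five library-drug doses (not always all listed) in √10 steps.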
# Kobe2602 + Phenformin = compound: C1=CC(=CC=C1NC(=S)NNC2=C(C=C(C=C2[N+](=O)[O-])C(F)(F)F)[N+](=O)[O-])F [Kobe2602] + N=C(N)NC(=N)NCCc1ccccc1 [Phenformin] (partner 250 µM)
# Outline: as §1
# [1] = compound: COc1cc2nccc(Oc3ccc(NC(=O)C4(C(=O)Nc5ccc(F)cc5)CC4)cc3)c2cc1OC [Cabozantinib] + CC(C)C[C@H](NC(=O)[C@H](Cc1ccccc1)NC(=O)c1cnccn1)B(O)O [Bortezomib] (partner 0.002 µM)
# Outline: as §1
# Zosuquidar + Bortezomib = compound: O[C@@H](COc1cccc2ncccc12)CN1CCN([C@@H]2c3ccccc3[C@@H]3[C@H](c4ccccc42)C3(F)F)CC1 [Zosuquidar] + CC(C)C[C@H](NC(=O)[C@H](Cc1ccccc1)NC(=O)c1cnccn1)B(O)O [Bortezomib] (partner 0.002 µM)
# Outline: as §1
Cell Line,relative viability (Kobe2602 + OSI-027; first compound 0.2 µM),relative viability (Kobe2602 + OSI-027; first compound 0.6325 µM),relative viability (Kobe2602 + OSI-027; first compound 2 µM),relative viability (Kobe2602 + OSI-027; first compound 20 µM),relative viability (Kobe2602 + Phenformin; first compound 0.2 µM),relative viability (Kobe2602 + Phenformin; first compound 0.6325 µM),relative viability (Kobe2602 + Phenformin; first compound 2 µM),relative viability (Kobe2602 + Phenformin; first compound 6.325 µM),relative viability (Kobe2602 + Phenformin; first compound 20 µM),relative viability ([1]; first compound 0.02 µM),relative viability ([1]; first compound 0.06325 µM),relative viability ([1]; first compound 0.2 µM),relative viability ([1]; first compound 0.6325 µM),relative viability ([1]; first compound 2 µM),relative viability (Zosuquidar + Bortezomib; first compound 0.01 µM),relative viability (Zosuquidar + Bortezomib; first compound 0.03162 µM),relative viability (Zosuquidar + Bortezomib; first compound 0.1 µM),relative viability (Zosuquidar + Bortezomib; first compound 0.3162 µM),relative viability (Zosuquidar + Bortezomib; first compound 1 µM),relative viability (Kobe2602 + OSI-027; first compound 6.325 µM)
201T,0.815,0.802,0.764,0.603,0.463,0.449,0.425,0.394,0.405,1.14,1.15,1.05,1.08,1.12,1.09,1.05,0.939,1.05,1.06,
A549,,,,,0.163,0.182,0.199,0.192,0.196,,,,,,,,,,,
A-427,0.508,0.583,0.399,0.476,0.416,0.413,0.364,0.303,0.307,1.03,0.969,1.05,0.936,0.988,0.923,0.971,0.87,1.06,0.901,0.446
ABC-1,0.582,0.501,,0.628,0.215,0.233,,0.211,0.227,0.263,0.263,0.294,0.351,0.279,0.361,0.328,0.322,0.379,0.269,0.585
BEN,0.295,0.293,0.326,0.319,0.264,0.295,0.302,0.246,0.25,0.679,1.08,0.902,0.639,0.795,0.928,0.734,0.651,0.882,0.773,0.282
CAL-12T,0.647,0.583,0.572,0.557,0.586,0.597,0.579,0.538,0.449,0.876,1.25,0.882,,1.06,0.974,1.15,,1.03,0.735,0.636
COR-L23,0.744,0.782,0.71,0.737,0.469,0.453,0.427,0.463,0.422,1.25,1,1.01,1.06,1.07,0.925,0.969,0.893,0.877,1.08,0.811
COR-L 105,0.631,0.784,0.623,0.843,0.487,0.491,0.422,0.542,0.494,0.799,0.999,,0.702,0.837,0.738,0.742,0.899,1.16,0.874,0.82
Calu-6,,,,,,,,,,1.09,1.05,1.04,1.04,0.949,0.955,1.05,1.13,1.05,1.15,
ChaGo-K-1,0.485,0.543,0.622,0.47,0.564,0.574,0.523,0.463,0.463,0.829,1.25,0.909,0.804,1.04,0.854,0.966,1.08,0.967,0.787,0.541
EBC-1,,,,,,,,,,0.673,0.484,0.221,0.245,0.173,0.649,0.553,0.652,0.591,0.547,
EKVX,0.684,0.68,0.707,0.695,0.27,0.237,0.22,0.233,0.248,0.996,1.19,0.942,1.1,1,1.05,0.975,0.839,0.984,1.02,0.659
EMC-BAC-2,0.365,0.512,0.381,0.421,0.575,0.591,0.508,0.538,0.553,0.982,1.2,1.01,1.07,1.17,1.02,1.07,1.02,1.22,1.09,0.413
EPLC-272H,0.3,0.286,0.289,0.32,0.313,0.32,0.31,0.323,0.294,0.98,0.937,0.756,1.04,1.04,0.844,0.956,0.998,1.16,0.938,0.311
H3255,0.52,0.73,0.613,0.564,0.339,0.359,0.422,0.315,0.334,0.75,0.958,,0.831,0.901,0.788,0.871,0.661,0.798,0.569,0.605
HARA,0.59,0.547,0.407,0.524,0.468,0.506,0.465,0.467,0.478,1.18,1.19,0.975,1.18,1.11,1.14,1.14,1.08,1.13,1.14,0.542
HCC-15,0.629,0.723,0.616,0.637,0.482,0.494,0.443,0.43,0.363,0.974,1.1,0.995,1.02,1.09,0.925,0.998,0.956,0.995,1.04,0.676
HCC-44,0.484,0.597,0.377,0.683,0.207,0.21,0.249,0.239,0.322,1.01,0.968,0.877,0.946,0.943,0.872,0.949,0.885,0.952,0.864,0.586
HCC-78,0.39,0.375,0.722,0.44,0.693,0.699,0.736,0.727,0.9,0.409,0.436,0.339,0.227,0.21,0.582,0.392,,0.625,0.428,0.385
HCC-366,0.727,0.975,0.886,0.894,0.669,0.642,0.618,0.584,0.61,1.06,1.13,1.1,0.953,1,0.946,1.03,1.06,1.08,1.07,0.847
HCC-827,0.787,0.743,0.755,0.718,0.428,0.441,0.464,0.364,0.413,0.981,1.1,,1.11,1.06,0.931,0.961,1.05,1.05,0.844,0.762

Cell Line,relative viability (Kobe2602 + OSI-027; first compound 0.2 µM),relative viability (Kobe2602 + OSI-027; first compound 0.6325 µM),relative viability (Kobe2602 + OSI-027; first compound 2 µM),relative viability (Kobe2602 + OSI-027; first compound 20 µM),relative viability (Kobe2602 + Phenformin; first compound 0.2 µM),relative viability (Kobe2602 + Phenformin; first compound 0.6325 µM),relative viability (Kobe2602 + Phenformin; first compound 2 µM),relative viability (Kobe2602 + Phenformin; first compound 6.325 µM),relative viability (Kobe2602 + Phenformin; first compound 20 µM),relative viability ([1]; first compound 0.02 µM),relative viability ([1]; first compound 0.06325 µM),relative viability ([1]; first compound 0.2 µM),relative viability ([1]; first compound 0.6325 µM),relative viability ([1]; first compound 2 µM),relative viability (Zosuquidar + Bortezomib; first compound 0.01 µM),relative viability (Zosuquidar + Bortezomib; first compound 0.03162 µM),relative viability (Zosuquidar + Bortezomib; first compound 0.1 µM),relative viability (Zosuquidar + Bortezomib; first compound 0.3162 µM),relative viability (Zosuquidar + Bortezomib; first compound 1 µM),relative viability (Kobe2602 + OSI-027; first compound 6.325 µM)
HOP-62,0.829,0.992,0.826,0.844,0.644,0.693,0.66,0.698,0.603,0.779,0.828,0.56,1.07,1.06,0.6,1.01,0.616,0.42,0.906,0.854
IA-LM,,,,,,,,,,0.912,0.782,0.78,0.998,0.958,0.925,0.797,0.975,1.03,0.84,
LC-2-ad,0.775,0.823,0.824,1.02,0.567,0.618,0.512,0.586,0.55,1.06,1.17,0.863,0.865,0.821,1.07,0.975,0.989,1.26,0.933,0.865
LCLC-97TM1,0.475,0.488,0.551,0.584,0.44,0.428,0.434,0.39,0.42,,1.02,0.653,0.967,0.96,0.433,0.538,,0.844,0.464,0.556
LCLC-103H,0.466,0.539,0.492,0.497,0.359,0.381,0.32,0.343,0.351,1.09,1.12,1.14,1.03,1.03,1.02,1.03,0.836,1.23,0.926,0.448
LK-2,0.231,0.208,0.239,0.212,0.461,0.579,0.489,0.624,0.516,,,,,,,,,,,0.248
LOU-NH91,0.739,0.786,0.69,0.71,0.669,0.775,0.639,0.614,0.658,0.484,0.55,0.457,0.508,0.551,0.567,0.52,0.484,0.503,0.507,0.754
NCI-H358,0.754,0.872,0.873,0.887,0.381,0.391,0.323,0.371,0.353,,,,,,,,,,,0.672
NCI-H522,0.856,0.687,0.737,0.672,0.731,0.63,0.646,0.732,0.623,,,,,,,,,,,0.636
NCI-H1299,,,,,,,,,,1.01,1.03,1.03,1.01,1.05,1.01,1.01,0.997,0.962,1.03,
NCI-H1395,0.633,0.866,0.717,0.651,0.484,0.435,0.453,0.451,0.456,,,,,,,,,,,0.731
NCI-H1623,0.457,0.448,0.424,0.433,0.633,0.571,0.563,0.555,0.589,,,,,,,,,,,0.374
NCI-H1648,0.246,0.277,0.248,0.25,,,,,,,,,,,,,,,,0.26
NCI-H1703,,,,,,,,,,0.243,0.237,0.235,0.194,0.154,0.441,0.329,0.371,0.397,0.567,
NCI-H1793,0.252,0.218,0.238,0.327,0.33,0.398,0.399,0.333,0.446,,,,,,,,,,,0.275
NCI-H1944,0.453,0.48,0.391,0.464,0.212,0.216,0.206,0.201,0.209,,,,,,,,,,,0.416
NCI-H2170,0.736,0.755,0.7,0.791,0.414,0.475,0.423,0.406,0.403,,,,,,,,,,,0.658
NCI-H2342,0.762,0.546,0.614,0.632,0.658,0.607,0.563,0.553,0.662,,,,,,,,,,,0.63
SK-MES-1,0.591,0.637,0.488,0.226,0.676,0.715,0.683,0.589,0.455,,,,,,,,,,,0.642
SW 900,0.712,0.477,0.499,0.488,0.609,0.843,0.521,0.691,0.775,,,,,,,,,,,0.374
